In US20090298903A1, “USE OF TETRAMIC ACID DERIVATIVES FOR INSECT CONTROL” (priority 2006, published 2009):

How the values were obtained:
Format in all cases: in vivo
[1] = tested on: Rhagoletis cerasi; assay: Example 21: cherry trees against Rhagoletis cerasi; details: 23 d after treatment 2, larvae on fruits, Dimethoate (400 EC) 200, (I-4) (150 OD) 75 g a.s./ha/m crown level
Protocol: Cherry trees cv. “Van” which are approximately 26 years old are treated, in three replications, against Rhagoletis cerasi. The application is carried out with an atomizer. Here, the active substance Example (I-4) (150 OD) and the commercial standard dimethoate (400 EC) are applied at the specified application rates. Two applications are carried out at an interval of 6 days with a water application rate of 500 l/ha/m crown level.
The test is evaluated 23 days after treatment 2 by scoring the destruction rates of the animals (larvae) on the fruits with the aid of the Abbott formula.

[2] = tested on: Ceratitis capitata; assay: Example 20: peach trees against Ceratitis capitata; details: animals on fruits
Protocol: Peach trees cv. “Oom Sarel” which are approximately 10 years old are treated, in three replications, against Ceratitis capitata. The application is carried out with a high-pressure sprayer or a knapsack sprayer which is operated with pressurized air. Here, the active substance Example (I-4) (150 OD) and the commercial standard Fenthion (500 EC) are tested at the specified application rates. The water application rate is 2500 l/ha. Three applications are carried out at an interval of 7 and 19 days, respectively.
The test is evaluated 9 and 16 days after treatment 3 by scoring the destruction rate of the animals on the fruits with the aid of the Abbott formula.

[3] = tested on: Dasineura pyri; assay: Example 19b): pear trees against Dasineura pyri; details: 9 d after treatment 2, larvae in rolled leaves
Protocol: Fully-grown pear trees cv. “Conference” of crown height approx. 3.5 m are treated, in four replications, against Dasineura pyri. Here, the active substance Example (I-4) is tested as (150 OD) and (240 SC) together with 0.1% a.s. rapeseed oil methyl ester (Mero 733 1R) in a tank mix at the specified application rate against the commercial standard Endosulfan (350 EC) at the specified application rate. The application is carried out with a spray diffuser. Here, the treatment is effected with a water application rate of 1000 l/ha/m crown level. Two applications are carried out at an interval of 7 days.
The test is evaluated 9 days after treatment 2 by scoring the destruction rate of the larvae in the rolled leaves, using the Abbott method.

[4] = tested on: oriental fruit moth (Laspeyresia molesta); assay: Example 28: peach trees against oriental fruit moth; details: 41 d after treatment, Pyrifroxyfen (35 WP) 123, Acetamiprid (30 SG) 168, (I-4) (150 OD) 153 g a.s./ha
Protocol: Approx. 10-year-old peach trees are treated, in four replications, against the oriental fruit moth (Laspeyresia molesta). The application is carried out with a knapsack sprayer which is operated with pressurized air. Here, the active substance (I-4) (150 OD) is tested against the commercial standards Pyriproxyfen (35 WP) and Acetamiprid (30 SG) at the specified application rates. The water application rate is 935 l/ha.
The test is evaluated 41 days after the treatment by scoring the destruction rate of the animals on the trees.

[5] = tested on: Thrips tabaci; assay: Example 6: onions against Thrips tabaci; details: population on leaves
Protocol: Plots 15 m^2 in size which are planted with onions are treated, in two replications, against Thrips tabaci. The application is effected with a knapsack sprayer which is operated with pressurized air. Here, the active substances Example (I-4), in a tank mix together with 0.2% a.s. rapeseed oil methyl ester (500 EW) and the commercial standard dimethoate and (380 EC), are tested at the specified application rates in a tank mix with 0.9% a.s. E-actipron (900 EC). The water application rate is 300 l/ha.
The test was evaluated 43 and 62 days after the treatment by scoring the destruction rate of the population on the leaves.

SMILES: CCOC(=O)OC1=C(c2cc(C)ccc2C)C(=O)N[C@]12CC[C@@H](OC)CC2 [Example (I-4)]
- Efficacy (% Abbott) 23 d [1]: 100 % Abbott
- Efficacy (% Abbott) 16 d after treatment 3 ([2]; Fenthion 1700, (I-4) 100 g a.s./ha): 100 % Abbott
- Efficacy (% Abbott) 9 d after treatment 3 ([2]; Fenthion (500 EC) 1700, (I-4) (150 OD) 100 g a.s./ha): 86.7 % Abbott
- Efficacy (% Abbott) 9 d ([3]; (I-4) as 150 OD, 150 g a.s./ha/m crown level): 100 % Abbott
- Efficacy (% Abbott) 9 d ([3]; Endosulfan (350 EC) 472.5, (I-4) as 240 SC + Mero (0.1% rapeseed oil methyl ester) 120 g a.s./ha/m crown level): 94.6 % Abbott
- Efficacy (% Abbott) 41 d [4]: 48.1 % Abbott
- Efficacy (% Abbott) 43 d ([5]; 43 d after treatment, Dimethoate (380 EC + 0.9% E-actipron) 380, (I-4) (+ 0.2% rapeseed oil methyl ester) 96 g a.s./ha): 83.0 % Abbott
- Efficacy (% Abbott) 62 d ([5]; 62 d after treatment, Dimethoate 380, (I-4) 96 g a.s./ha): 84.5 % Abbott
